Here are results for 16 compounds from PubChem BioAssay (NCI).

One may read the GI50 as the concentration at which growth is held to half of that of the control. The term TGI denotes the concentration at which net growth stops. Lower therefore signals greater sensitivity of the cells.

What all share (test): DTP human tumour cell line panel, 48 h
The subject of test [1] is A549 NSCLC.
The subject of test [2] is DU-145 prostate.
Test [3] deals with M14 melanoma.
Test [4] concerns MOLT-4 leukemia.
For test [5], the system named is HS 578T breast.
Test [6] relates to T-47D breast.
Test [7] concerns SF-268 CNS.
The test system of test [8] is MDA-MB-231 breast.
For test [9], the system named is HCT-116 colon.
The test system of test [10] is SNB-75 CNS.

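Briefly, cells in 96-well plates were exposed to five compound concentrations for 48 h, and endpoints were estimated by linear interpolation. GI50 = concentration required for 50% inhibition of growth. The concentration for full growth arrest is given as TGI.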

Turning to `CC(C)(C)CC(C)(C)c1ccc(OCCO)cc1`, the GI50 in test [1] was 9.04 µg/mL; in [2], 9.51 µg/mL; in test [3] it was 9.29 µg/mL; in test [4], 3.41 µg/mL; in [5], 4.26 µg/mL; in test [6], 2.1 µg/mL. For the same compound, the GI50 in test [7] is 8.87 µg/mL; in test [8], 4.43 µg/mL; in [9] it was 3.86 µg/mL; in test [10], 3.45 µg/mL. The TGI was greater than 75 µg/mL in test [1]; 20.6 µg/mL in test [2]; 20.6 µg/mL in [3]; greater than 75 µg/mL in [4]; 19.6 µg/mL in [5]; 18.3 µg/mL in [6]. The concentration for total growth inhibition (TGI) in [7] stood at 27.3 µg/mL; in test [8], 15.7 µg/mL; in [9] it was 14.5 µg/mL; in test [10], 18.1 µg/mL.
`O=C1NC(=O)C(c2c[nH]c3ccccc23)=C1c1c[nH]c2ccccc12`: the GI50 in [1] is 10700 nM; in test [2], greater than 21200 nM; in test [3], 10900 nM; in [4] it was 9550 nM; in test [5], 5.56 µM; in test [6], 10200 nM. Moreover, the GI50 in test [7] was 16300 nM; in test [8], 12.6 µM; in [9] it was 9330 nM; in [10] it was 4110 nM. Besides, the TGI in test [1], in [2], in test [3], in test [4], in test [5] and in test [6] was greater than 25 µM throughout. Besides, the TGI in [7], in [8], in test [9] and in [10] was greater than 25 µM throughout.
For `CC(C)=CC[C@@H]1CC2(CC=C(C)C)C(=O)C(OC3(C(=O)c4ccccc4)C(=O)C4(CC=C(C)C)C[C@@H](CC=C(C)C)C(C)(C)C(CC=C(C)C)(C4=O)C3=O)(C(=O)c3ccccc3)C(=O)C(CC=C(C)C)(C2=O)C1(C)C` (stereo not given in full), the GI50 in [1] was 1730 nM; in test [2], 1350 nM; in test [3] it was 1130 nM; in test [4], 1300 nM; in test [5], 1.6 µM; in test [6] it was 1190 nM. For the same compound, the GI50 in test [7] is 1130 nM; in test [8], 1.49 µM; in test [9] it was 953 nM; in test [10], 1110 nM. In addition, the TGI in test [1] was determined as 6.05 µM; in test [2], 3.88 µM; in test [3] it was 3.13 µM; in test [4] it was 4.51 µM; in test [5] it was 4.67 µM; in [6] it was 4.07 µM. The TGI is 2.89 µM in test [7], 4.12 µM in test [8], 2.3 µM in test [9] and 5.62 µM in test [10].
In the case of `CN1CCN(Cc2ccc(NC(=O)c3cncc(C#Cc4cnc(N)c5ncccc45)c3)cc2C(F)(F)F)CC1`, the GI50 in [1] is 436 nM; in test [2], 370 nM; in test [3], 69.8 nM; in test [4], 239 nM; in test [5], 0.213 µM; in [6], 2520 nM. Further, the GI50 in test [7] was 511 nM; in test [8], 0.147 µM; in [9] it was 122 nM; in [10], 391 nM. Also, the TGI in [1] stood at 2.52 µM; in test [2] it was 7.33 µM; in test [3], 1.14 µM; in test [4], 5.16 µM; in [5] it was 1.68 µM; in test [6] it was 39.1 µM. Moreover, the TGI stood at 2.95 µM in [7], 0.71 µM in [8], 1.74 µM in [9] and 1.48 µM in [10].
On to `COc1ccc(C2=NN(C(N)=S)C(c3ccc4c(c3)OCO4)C2)cc1` (stereo not given), for which the GI50 in test [1] is 3190 nM; in [2] it was 1940 nM; in test [3], 3770 nM; in test [4], 3020 nM; in test [5], 2.82 µM; in test [6], 3220 nM. Also, the GI50 was 2790 nM in test [7], 4.71 µM in test [8], 2960 nM in test [9] and 2750 nM in [10]. The TGI in test [1] was greater than 100 µM; in test [2], 4.56 µM; in [3] it was 35.4 µM; in test [4], 34.5 µM; in test [5] it was 7.09 µM; in test [6], 41 µM. In addition, the TGI in test [7] amounted to 8.02 µM; in test [8], 65.7 µM; in test [9], 22.9 µM; in test [10], 8.51 µM.
On to `Nc1ccc(/C=C/c2ccc3ncccc3c2)cc1`, for which the GI50 was greater than 100000 nM in test [1]; greater than 100000 nM in test [2]; greater than 100000 nM in test [3]; greater than 100000 nM in [4]; greater than 100 µM in test [5]; greater than 100000 nM in test [6]. Besides, the GI50 was greater than 100000 nM in [7], 2.09 µM in [8], greater than 100000 nM in test [9] and 37100 nM in test [10]. Besides, the TGI in test [1], in [2], in test [3], in test [4], in test [5] and in [6] was greater than 100 µM in each case. For the same compound, the TGI in [7], in test [8], in test [9] and in [10] was greater than 100 µM throughout.
For `CC(C)=CCC/C(C)=C/CC/C(C)=C/CSC[C@H](NC(=O)CCCCCN1CCN(C)CC1)C(=O)NC1CCCCCC1`, the GI50 in test [1] was 2500 nM; in test [2] it was 1930 nM; in test [3], 1730 nM; in test [4], 2690 nM; in test [5] it was 1.95 µM; in [6], 2220 nM. Further, the GI50 in [7] was 2020 nM; in test [8], 1.93 µM; in test [9], 1710 nM; in test [10], 1530 nM. Besides, the TGI is 7.4 µM in [1]; 3.52 µM in [2]; 3.43 µM in test [3]; 7.48 µM in test [4]; 4.53 µM in [5]; 6.45 µM in [6]. Further, the TGI in test [7] came out at 4.03 µM; in [8], 3.86 µM; in test [9], 3.16 µM; in test [10] it was 4.22 µM.
Regarding `CCC(=C(c1ccc(OCCN2CCCCC2)cc1)c1ccc(OCCN2CCCCC2)cc1)c1ccc(Cl)cc1`, the GI50 was 7420 nM in test [1]; greater than 16700 nM in test [2]; 669 nM in test [3]; 2770 nM in test [4]; 4.23 µM in test [5]; 9620 nM in test [6]. Moreover, the GI50 in [7] is 6700 nM; in test [8], 5.35 µM; in [9], 1560 nM; in [10], greater than 16700 nM. In addition, the TGI in [1] was greater than 16.7 µM; in [2], greater than 16.7 µM; in test [3], 2.65 µM; in test [4], greater than 16.7 µM; in test [5], greater than 16.7 µM; in test [6], greater than 16.7 µM. The TGI in test [7], in test [8], in test [9] and in test [10] was greater than 16.7 µM in each case.
`C[N+]1([O-])C2CCC1CC(OC(=O)C(CO)c1ccccc1)C2` (stereo not given): the TGI in [1], in test [2], in test [3], in [4], in [5] and in test [6] was greater than 100 µM throughout. Further, the TGI in test [7], in test [8], in [9] and in [10] was greater than 100 µM throughout.
Regarding `Cn1cc(-c2ccc3nc(-c4ccc(CC(=O)Nc5cc(C(C)(C)C)no5)cc4)cnc3c2)cn1`, the GI50 in test [1] was 57.7 nM; in [2], 29.6 nM; in [3], 17.2 nM; in test [4], 102 nM; in [5], 0.024 µM; in test [6] it was 82.7 nM. The GI50 in test [7] is 39.9 nM; in [8], 0.0392 µM; in test [9], 29 nM; in test [10], 16.1 nM. In addition, the concentration for total growth inhibition (TGI) in test [1], in [2], in test [3], in [4], in [5] and in test [6] was greater than 3 µM in each case. Also, the TGI is greater than 3 µM in test [7], 0.664 µM in test [8], greater than 3 µM in test [9] and greater than 0.84 µM in test [10].
As to `CCN(Cc1ccc(OC)cc1)c1ccc(CO)c(Cl)c1`, the GI50 in test [1] was 2620 nM; in [2] it was 25600 nM; in test [3], 16100 nM; in test [4], 21600 nM; in [5], 22.1 µM; in test [6], 115 nM. The GI50 in test [7] was 29100 nM; in test [8] it was 18.9 µM; in test [9], 87.5 nM; in test [10], 13900 nM. For the same compound, the TGI in test [1] was 35.9 µM; in [2], greater than 100 µM; in test [3] it was 58.3 µM; in test [4], 59.7 µM; in [5], greater than 86.1 µM; in test [6], 0.589 µM. The TGI in test [7] is greater than 100 µM; in test [8], 61.3 µM; in [9] it was 10.8 µM; in test [10] it was 45.6 µM.
Regarding `O=[N+]([O-])c1ccc(C2=NCCO2)cc1`, the GI50 in test [1] is greater than 100000 nM; in test [2], greater than 100000 nM; in [3], greater than 100000 nM; in [4] it was greater than 100000 nM; in [5], greater than 100 µM; in test [6] it was greater than 100000 nM. Besides, the GI50 in test [7] is greater than 100000 nM; in [8], greater than 100 µM; in test [9], greater than 100000 nM; in test [10] it was greater than 100000 nM. The TGI in test [1], in test [2], in [3], in [4], in test [5] and in [6] was greater than 100 µM in each case. The TGI in [7], in [8], in test [9] and in [10] was greater than 100 µM in each case.
As for `CS(=O)(=O)OCCN(CCOS(C)(=O)=O)c1ccc(C=Nc2ccc(-c3csc(COc4ccccc4)n3)cc2)cc1`, the TGI is 32.1 µM in test [1]; 14.2 µM in test [2]; 28.1 µM in test [3]; 15.6 µM in test [4]; greater than 53.1 µM in test [5]; greater than 51.8 µM in test [6]. In addition, the TGI in [7] was found to be 14.6 µM; in test [8], 42.7 µM; in test [9] it was 27.6 µM; in test [10], 11.6 µM.
In the case of `CC1(C)N=C(N)N=C(N)N1c1ccc(OCCCNC(=O)Nc2ccc(S(=O)(=O)F)cc2)c(Cl)c1`, the GI50 is 73.2 nM in [1]; 277 nM in test [2]; 493 nM in test [3]; 386 nM in test [4]; 4.6 µM in [5]; 5650 nM in test [6]. The GI50 in test [7] is 199 nM; in test [8] it was 3.34 µM; in test [9], 61.3 nM; in test [10], 1020 nM. The TGI in [1] was greater than 100 µM; in [2] it was greater than 100 µM; in [3], greater than 100 µM; in [4] it was greater than 100 µM; in test [5], greater than 78.8 µM; in [6], greater than 100 µM. Moreover, the TGI in test [7] was greater than 100 µM; in test [8], greater than 100 µM; in [9] it was greater than 100 µM; in test [10] it was 50 µM.
Turning to `Cc1ccc(N)c(S)c1`, the TGI in [1] was 40.6 µM; in test [2], 29.1 µM; in test [3] it was 30.8 µM; in test [4] it was 47 µM; in test [5], greater than 100 µM; in test [6] it was 33.9 µM. Moreover, the TGI in test [7] was determined as 46.2 µM; in test [8], 31.3 µM; in test [9], 46.8 µM; in test [10], 40.5 µM.
For `O=c1c2ccccc2nc(-c2cccc([N+](=O)[O-])c2)n1O`, the TGI in test [1], in test [2], in test [3], in [4], in test [5] and in test [6] was greater than 100 µM in each case. Moreover, the TGI in test [7], in [8], in test [9] and in test [10] was greater than 100 µM throughout.
